The source made the active and inactive calls. The calls are words filed in the database; no cut-off is given here.
What was measured:
[1] = Activity of alkaline phosphatase at 2 uM measured every 2 mins from up to 30 mins by fluorometric analysis
[2] = molecular target: T1, Tyrosine-protein phosphatase non-receptor type 1 (Homo sapiens) (UniProt P18031); assay: Activity of PTP1B
T1 sequence (whole entry): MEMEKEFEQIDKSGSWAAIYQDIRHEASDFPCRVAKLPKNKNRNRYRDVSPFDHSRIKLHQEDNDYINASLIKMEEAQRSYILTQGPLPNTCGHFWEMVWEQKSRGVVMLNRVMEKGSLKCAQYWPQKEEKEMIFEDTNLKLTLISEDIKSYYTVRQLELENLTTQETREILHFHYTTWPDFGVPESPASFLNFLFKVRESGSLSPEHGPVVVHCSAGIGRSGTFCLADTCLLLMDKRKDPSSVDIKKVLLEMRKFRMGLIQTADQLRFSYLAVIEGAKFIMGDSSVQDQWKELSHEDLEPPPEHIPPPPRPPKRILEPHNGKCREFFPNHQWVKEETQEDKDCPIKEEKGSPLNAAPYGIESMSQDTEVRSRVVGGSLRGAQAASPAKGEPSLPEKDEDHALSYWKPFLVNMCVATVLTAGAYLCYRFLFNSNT

[3] = Activity of alkaline phosphatase by Michaelis-Menten equation analysis
[4] = Ratio of Vmax to Km for alkaline phosphatase
[5] = molecular target: Serine/threonine-protein phosphatase PP1-alpha catalytic subunit (Homo sapiens) (UniProt P62136); assay: Activity of PP1 alpha
Serine/threonine-protein phosphatase PP1-alpha catalytic subunit (Homo sapiens), sequence (P62136 whole entry): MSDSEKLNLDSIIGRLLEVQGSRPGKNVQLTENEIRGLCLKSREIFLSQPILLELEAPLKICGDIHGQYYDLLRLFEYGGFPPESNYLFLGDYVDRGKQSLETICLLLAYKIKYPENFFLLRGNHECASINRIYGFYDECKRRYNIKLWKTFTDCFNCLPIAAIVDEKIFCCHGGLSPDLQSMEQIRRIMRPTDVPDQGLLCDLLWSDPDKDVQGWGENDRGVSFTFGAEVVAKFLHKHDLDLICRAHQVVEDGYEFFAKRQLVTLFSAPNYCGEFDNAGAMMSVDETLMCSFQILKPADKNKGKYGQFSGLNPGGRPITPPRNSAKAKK

SMILES | Activity [1] | Activity [2] | Km [3] [µM] | Vmax [3] [µM/min] | Vmax/Km [4] [min⁻¹] | Activity [5]
O=C1OC2(c3ccc(OP(=O)(O)O)cc3Oc3cc(OP(=O)(O)O)ccc32)c2ccccc21 | Active | Active | – | – | – | –
COc1ccc(-c2c3ccc(=O)cc-3oc3cc(OCOP(=O)(O)O)ccc23)c(C)c1 | Active | inactive | 0.77 | 0.033 | 0.043 | inactive
COc1ccc(-c2c3ccc(=O)cc-3oc3cc(OP(=O)(O)O)ccc23)c(C)c1 | Active | Active | 0.96 | 0.025 | 0.026 | Active

Source: ChEMBL document CHEMBL1817605, “Development of a highly selective fluorescence probe for alkaline phosphatase” (Bioorg Med Chem Lett, 2011)
